Test [1] addresses T1, human carbonic anhydrase II, HCAII (Homo sapiens, UniProt P00918). As to the kind of experiment: Surface plasmon resonance-based steady state affinity, immobilized HCAII. To be noted: 1:1 binding model, peptide 40 nM to 10 μM. As to the method: [Taylor, P. W.; King, R. W.; Burgen, A. S. V. Biochemistry 1970, 9, 2638-2645] […] Lond. B 1976, 193, 107-125]. […] 1.4 equivalents of Id were allowed to react with 1 equivalent of KE2-P or KE3-P in 50 mM Tris-HCl buffer at pH 8.0 and room temperature.

Test [2] addresses T1, human carbonic anhydrase II, HCAII. Description: Fluorescence emission spectra of dansyl-labelled peptides in absence and presence of HCAII. The test is classed as binding. The following applies: 1 μM peptide, 50 μM HCAII, 10 mM HBS buffer pH 7.4, 298 K, excitation 335 nm.
Method: Dotted lines represent spectra in the absence of HCAII, solid lines represent spectra where 50 μM HCAII has been added.
Spectra were recorded of 1 μM peptide solutions in 10 mM HBS buffer at pH 7.4 and 298 K, in the absence and presence of 50 μM HCAII, with 1 μM solutions of KE2-P and KE3-P as negative controls, FIG. 2.

No end group written: not given here. *: point of attachment. Dansyl = CN(C)c1cccc2c(S(=O)(=O)*)cccc12

Turning to `NS(=O)(=O)c1ccc(C(=O)NCCCCCC(=O)O)cc1` [Ic], in test [1], binding was put at a Kd of 44 nM. For the compound “KE3-P: KE3 with dansyl fluorescent probe at the side chain of Lys15; control without ligand (NAADLEAKIRHLAEK(Dansyl)LAARGPCDAAQLAEQLARRFEAFARAG)”, the “increase of fluorescence intensity upon addition of HCAII” value in test [2] was “not affected”.
